Where “and” joins values, the source holds several entries; their conditions need not be identical. Identical values can stand only once. Blank lines part the entries; values can stand above or below the molecule they belong to. Ends that are not written are not given here.
How the values were obtained:
anti-CD2 antibody B-E2 [1] = assay: FACS competition assay of peptides for binding of anti-CD2 antibody B-E2 to T cells; details: 1 mM peptide, 1×10^6 MNC, 15 min room temperature; FIG. 3
Procedure: Peptides having affinity for the CD2 monoclonal antibody B-E2 were isolated by phage display biopanning. Various peptides were tested as competitors for binding of T cells to the anti-CD2 antibody B-E2. A competition assay was performed using 1 mM of each peptide. The peptides were at 2×10^7 fold molar excess relative to the competitor CD2 antigen and at 6×10^6 fold molar excess relative to anti-CD2 antibody. Competition was measured using a FACS competition assay (see FIG. 3).
For the competition assay, 0.5 ml of a 1 mM solution of various peptides was added to 1×10^6 peripheral blood mononuclear cells (MNC) followed by the addition of 100 μl of 0.02 μg/ml of CD2 antibody (B-E2) and incubated for 15 min at room temperature. Cells were washed once in lysing reagent (155 mM ammonium chloride, 10 mM potassium bicarbonate, and 0.1 mM EDTA) and twice in 2 ml of PAH (DPBS, 1% human serum albumin, 0.02% NaN3). 1 μl of goat F(ab′)2 fragment anti-mouse IgG (heavy+light)-phycoerythrin conjugated (GAM-PE; Immunotech; Miami Fla.) was added to each sample and incubated for 10 min at room temperature. Cells were washed twice in 2 ml of PAH. The final cell pellet was resuspended in 0.25 ml of 0.5% paraformaldehyde. The samples were analyzed by flow cytometry.

SUP-T1 cells = assay: Flow cytometry of SUP-T1 cells sensitized with CD8-PR34+ conjugate, biotinylated 9C5 and streptavidin-PE, with or without free peptide; format: cell-based, human; details: SUP-T1 cells stained with conjugate, biotinylated 9C5, streptavidin-PE; free peptide 5.0 mg/ml, 15 min; FIG. 2
Procedure: For flow cytometry experiments, SUP-T1 cells were used. SUP-T1 is a T-lymphoma-derived tumor cell line known to express typical T cell surface markers. The SUP-T1 cells were prepared for flow cytometry and sequentially sensitized with the CD8 antibody-PR34+ peptide (CD8-PR34+) conjugate, biotinylated 9C5, and phycoerythrin-labeled (PE-labeled) streptavidin. The SUP-T1 cells were incubated with either streptavidin-PE; sequentially with the CD8-PR34+ conjugate, biotinylated 9C5, followed by streptavidin-PE; or sequentially with CD8-PR34+ conjugate, biotinylated 9C5, streptavidin-PE, followed by a 15 min incubation with free PR34+™ peptide. The SUP-T1 cells were then analyzed by flow cytometry. All incubations were performed in a mixture of Dulbecco's phosphate buffered saline (GibcoBRL), 0.05% azide, 1.0% human serum albumin (PAH). All incubations were for 15 min at room temperature and each was followed by a wash with 1.0 ml PAH. The stained cells were resuspended in 0.25 ml PAH for flow cytometry. SUP-T1 cells (1×10^6) were stained with 1 μg of either the CD8-9069N or the CD34-biotin. The peptide was used at 5.0 mg/ml.

CD8+ cells = assay: Positive selection of CD8+ cells from a mononuclear cell preparation; format: cell-based, human; details: condition 2: biotinylated CD8 antibody capture; incubation with free PR34+ peptide
Procedure: To test the ability of the CD8-PR34+ conjugate to isolate CD8+ cells from a population, mononuclear cells (MNCs), which contain CD8+ cells, were prepared. Mononuclear cells were collected from human donors. Mononuclear cells were collected from a G-CSF mobilized human donor using a CS-3000™ (Baxter) following the protocol of the manufacturer. The starting population of MNCs was 19.42% CD3+/8+. For each rosetting reaction, a quantity of MNCs containing 2×10^6 CD8+ cells was used. Biotinylated CD8 antibody (MT-415) was biotinylated essentially as described in Example I. The MNCs were incubated under three conditions. In condition 1, MNCs were incubated with streptavidin beads alone. In condition 2, MNCs were incubated with biotinylated CD8 antibody, followed by streptavidin beads. In condition 3, MNCs were incubated with CD8-PR34+ conjugate, followed by biotinylated 9C5 and streptavidin beads. After incubation with streptavidin beads, the free cells were removed, and the cells attached to streptavidin beads were incubated with free PR34+™ peptide. The released cells were counted, and the number of CD8+ cells was evaluated using flow cytometry. The CD8+ cells were quantitated using a combination of CD3 and […]. CD3 is a pan T cell marker, and CD3+ populations can be further subdivided into mutually exclusive CD4+ and CD8 positive populations. […]

CD2+ T cells = assay: Positive selection of CD2+ T cells using CD2-9069N, b-9069 and streptavidin beads; format: cell-based, human; details: release reagent 9069N 2.5 mg; for % T-cells released: 30 min./RT
Source text: To test the ability of a PR34+ peptide-conjugate to isolate a different cell type, the PR34+TM peptide was coupled to a CD2 antibody (B-E2; IgG2b isotype; Diaclone; Besancon, France) essentially as described in Example T. The PR34+TM peptide, also designated […], conjugated to the CD2 antibody was designated CD2-[…]. The biotinylated 9C5 antibody, also known as the 9069 antibody, was designated b-9069. Either mobilized or non-mobilized MNC preparations (see Example III) were used, with similar results. Cells were incubated with 1 μg or 5 μg of CD2-[…] conjugate for 15 min at room temperature (see Table 3). The cells were then incubated with 1 μg or 10 μg of biotinylated 9C5 antibody (b-9069) and streptavidin beads. Bound cells were subsequently incubated with either buffer or 2.5 mg of free PR34+TM peptide ([…]). Incubation conditions were essentially as described in Example II. The released cells were then quantitated and the purity determined. Purity and cell counts were assessed using an anti-CD3 antibody and the True Count flow cytometty quantitation method (Becton Dickenson; San Jose Calif.).

CD2 T cells = assay: T cell selection using CD2-PR34 conjugate and capture by direct binding of CD34 antibody to Dynabeads; format: cell-based, human; details: for % Purity / % Yield: release agent PR34+ 2.5 mg
Procedure: The CD2 antibody B-E2 was conjugated to PR34™ peptide essentially as described in Example IV. MNCs were incubated essentially as described in Example IV using CD2-PR34 conjugate. The cells were then incubated with the CD34 antibody 9069 coated on M-450 Dynabeads (Dynal). The CD34 antibody coated beads were prepared by absorbing various amounts of anti-CD34 antibody on the bead surface. The beads were prebound with 0, 1, 5, 20, or 50 μg of antibody per 108 beads. As a control, an aliquot of cells was incubated with streptavidin coated Dynabeads.

Camma cells = assay: Positive selection of Camma cells using Pan-O-5-PR34 conjugate and anti-CD34-coated Dynabeads; format: cell-based; details: PR34 peptide 5 mg/ml, 30 min room temperature; FIG. 5, N=1
Procedure: To prepare antibody-coated beads, Dynabeads (Dynal) were washed with Dulbecco's phosphate buffered saline (D-PBS). Washed beads were coated with 50 μg anti-CD34 monoclonal antibody per 10^8 beads for 24 hours at 4° C. The beads were washed twice with Isolex buffer and incubated with 1% albumin in the Isolex buffer for 24 hours at 4° C.
To synthesize the Pan-O-5-PR34 conjugate, the Pan-O-5 monoclonal antibody was incubated with N-(ε-maleimidocaproyloxy)succinimide ester for 30 min at room temperature to generate an antibody-linker complex. The antibody-linker complex was washed twice with D-PBS using an Amicon spin column (30 KD; Millipore Corp.; Bedford Mass.). The Pan-O-5-antibody-linker complex was incubated with PR34™ peptide for 30 min at room temperature. The Pan-O-5-linker-PR34 antibody complex was washed twice with D-PBS using an Amicon spin column. The concentration of the conjugate was determined by absorbance at 280 nm.
Cells (18×10^6) were incubated with Pan-O-5-linker-PR34 antibody (5 μg/ml) for 15 min. The cell-antibody complex was washed twice with Isolex buffer and incubated with anti-CD34-coated Dynabeads (5 beads per cell) for 30 min at room temperature. The Dynabeads were isolated with a magnet, and unbound cells were removed. The bead-cell fraction was incubated with PR34™ peptide (5 mg/ml) for 30 min at room temperature. […]

anti-CD2 antibody B-E2 [2] = assay: FACS release assay of cells bound to anti-CD2 antibody using peptides; format: binding; details: 1 mM or 5 mM peptide, 30 min room temperature, in some cases 1 mM DTT; FIG. 4
Procedure: Several of the peptides were further tested for release activity. Briefly, the FACS release assay was performed by incubating 1×10^6 MNC with 100 μl of 0.02 μg/ml of CD2 antibody for 15 min at room temperature. Cells were washed once with 2 ml of lysing reagent and twice with 2 ml of PAH solution. 0.5 ml of a 1 mM or 5 mM peptide stock was added to the cell pellet and incubated at room temperature for 30 min. Cells were washed twice in 2 ml of PAH. 1 μl of GAM-PE was added to each sample and incubated for 10 min at room temperature. Cells were washed twice in 2 ml of PAH. The final cell pellet was resuspended in 0.25 ml of 0.5% paraformaldehyde. The samples were analyzed by flow cytometry.
In the release assay, either 1 mM or 5 mM peptide (1 mM peptide except where indicated to be 5 mM in FIG. 4). In some cases, the release assay was performed in the presence of 1 mM dithiothreitol (DTT). The assay was performed with two different batches of donor cells (second batch of donor cells designated with “*” in FIG. 4).

[3] = target: biotinylated 9C5 antibody (anti-human CD34 monoclonal antibody); assay: cell-based or functional assay
[4] = SA: streptavidin coated Dynabead control

Molecule: ACKQF
- competition for binding of the anti-CD2 antibody B-E2 to cells (anti-CD2 antibody B-E2 [1]): compete for binding

Molecule: ACKQFACKQF
- competition for binding of the anti-CD2 antibody B-E2 to cells (anti-CD2 antibody B-E2 [1]): compete for binding

Molecule: ACKQFDFC
- competition for binding of the anti-CD2 antibody B-E2 to cells (anti-CD2 antibody B-E2 [1]): compete for binding

Molecule: ACKQFDFCNDH
- competition for binding of the anti-CD2 antibody B-E2 to cells (anti-CD2 antibody B-E2 [1]): compete for binding

Molecule: ACKQFDFCNDHWSK
- competition for binding of the anti-CD2 antibody B-E2 to cells (anti-CD2 antibody B-E2 [1]): compete for binding

Molecule: ACKQFDFCNDHWSKSQH
- competition for binding of the anti-CD2 antibody B-E2 to cells (anti-CD2 antibody B-E2 [1]): compete for binding

Molecule: ACKQFN
- competition for binding of the anti-CD2 antibody B-E2 to cells (anti-CD2 antibody B-E2 [1]): compete for binding

Molecule: ACKQFNNDV
- competition for binding of the anti-CD2 antibody B-E2 to cells (anti-CD2 antibody B-E2 [1]): compete for binding

Molecule: ACKQFNNDVTCN
- competition for binding of the anti-CD2 antibody B-E2 to cells (anti-CD2 antibody B-E2 [1]): compete for binding

Molecule: ACKQFNNDVTCNAAEGDD
- competition for binding of the anti-CD2 antibody B-E2 to cells (anti-CD2 antibody B-E2 [1]): compete for binding

Molecule: ACKQFNNDVTCNKRH
- competition for binding of the anti-CD2 antibody B-E2 to cells (anti-CD2 antibody B-E2 [1]): compete for binding

Molecule: ACKQLHSVSGCR
- competition for binding of the anti-CD2 antibody B-E2 to cells (anti-CD2 antibody B-E2 [1]): compete for binding

Molecule: ACKRPP
- competition for binding of the anti-CD2 antibody B-E2 to cells (anti-CD2 antibody B-E2 [1]): compete for binding

Molecule: ACKRPPVSLTCH
- competition for binding of the anti-CD2 antibody B-E2 to cells (anti-CD2 antibody B-E2 [1]): compete for binding

Molecule: ASKQF
- competition for binding of the anti-CD2 antibody B-E2 to cells (anti-CD2 antibody B-E2 [1]): compete for binding

Molecule: Ac-QQGWFPKD [PR34+™ peptide, peptide capable of displacing the anti-CD34 antibody 9C5 (9069); used free as release agent]
- fluorescent signal after addition of free peptide (SUP-T1 cells): eliminated the fluorescent signal
- % Yield (CD8+ cells): less than 3%
- % Purity (CD3+) (CD2+ T cells; CD2-9069N 1 μg, b-9069 1 μg): 89%
- % T-cells released (CD2+ T cells; CD2-9069N 1 μg, b-9069 1 μg): 71%
- % Purity (CD3+) (CD2+ T cells; CD2-9069N 1 μg, b-9069 10 μg): 87% and 74%
- % T-cells released (CD2+ T cells; CD2-9069N 1 μg, b-9069 10 μg): 87% and 65%
- % Purity (CD3+) (CD2+ T cells; CD2-9069N 5 μg, b-9069 1 μg): 88% and 81%
- % T-cells released (CD2+ T cells; CD2-9069N 5 μg, b-9069 1 μg): 61% and 56%
- % Purity (CD3+) (CD2+ T cells; CD2-9069N 5 μg, b-9069 10 μg): 70%
- % T-cells released (CD2+ T cells; CD2-9069N 5 μg, b-9069 10 μg): 50%
- % Purity (CD2 T cells; 1 μg antibody per 10^8 beads): 92.4%
- % Yield (CD2 T cells; 1 μg antibody per 10^8 beads): 55.9%
- % Purity (CD2 T cells; 5 μg antibody per 10^8 beads): 91.3%
- % Yield (CD2 T cells; 5 μg antibody per 10^8 beads): 68.9%
- % Purity (CD2 T cells; 20 μg antibody per 10^8 beads): 91.8%
- % Yield (CD2 T cells; 20 μg antibody per 10^8 beads): 47.4%
- % Purity (CD2 T cells; 50 μg antibody per 10^8 beads): 91.4%
- % Yield (CD2 T cells; 50 μg antibody per 10^8 beads): 57.5%
- % Purity (CD2 T cells; [4]): 94.5%
- % Yield (CD2 T cells; [4]): 81.5%
- purity of the cells released by free peptide (CD2 T cells; summary, antibody-coated beads): greater than 90%
- yield of CD2 cells (CD2 T cells; summary, antibody-coated beads incubated with free PR34+ peptide): ≥ 50%
- cells released (Camma cells): Greater than 75%

Molecule: KCHPNMSLKECH
- competition for binding of the anti-CD2 antibody B-E2 to cells (anti-CD2 antibody B-E2 [1]): compete for binding

Molecule: RCRRPATTPACR
- competition for binding of the anti-CD2 antibody B-E2 to cells (anti-CD2 antibody B-E2 [1]): compete for binding
- release activity (release of T cells bound to anti-CD2 antibody) (anti-CD2 antibody B-E2 [2]): highest release activity

Molecule: RCRRPATTPACRACKQF
- competition for binding of the anti-CD2 antibody B-E2 to cells (anti-CD2 antibody B-E2 [1]): compete for binding

- % SUP-T1 Yield after release with free peptide (tube 2) [3]: 43%
- % SUP-T1 Yield after release with free peptide (tube 3) [3]: 31%
- % T-cells released by 9069N 2.5 mg (CD2-9069N 1 µg, b-9069 1 µg) [3]: 71%
- % T-cells released by 9069N 2.5 mg (CD2-9069N 1 µg, b-9069 10 µg) [3]: 87% and 65%
- % T-cells released by 9069N 2.5 mg (CD2-9069N 5 µg, b-9069 1 µg) [3]: 61% and 56%
- % T-cells released by 9069N 2.5 mg (CD2-9069N 5 µg, b-9069 10 µg) [3]: 50%
- % Yield after release with PR34+ 2.5 mg (streptavidin coated Dynabead control) [3]: 81.5%
- % Yield of CD8+ cells after release with free peptide (condition 3) [3]: 16%
Molecule: Ac-QQGWFPKD [free PR34+ peptide Ac-QQGWFPKD (SEQ ID NO:2)]

— patent US20030119070A1, “Reagents for cell selection and methods of use” (Nexell Therapeutics, Inc., priority 2000, published 2003)
